In article PMC12811658, “Design, Synthesis, and Structural Evolution of Pseudo‐Natural Product IDO1 Inhibitors and Degraders” (Angewandte Chemie (International Ed. in English), 2025):

Columns and labels:
[1] = system: IDO1 mRNA levels in SKOV-3 cells; assay: RT-qPCR of IDO1 expression; assay type: cell-based; conditions: 24 h
Description: a, IDO1 mRNA levels in SKOV-3 cells.
To assess IDO1 gene expression in the SKOV3 cell line, SKOV3 cells were seeded into 24-well plates. After 24 h, the cells were treated with the indicated concentrations of compounds, followed by an additional 24 h incubation.

C57Bl/6 mice = assay: Tolerability (dose escalation PO and IP); assay type: in vivo, male C57Bl/6 mice; conditions: for dose up to which no clinical signs were observed: dose escalation over 3-5 days
SKOV-3 tumor = assay: SKOV-3 tumor-bearing mouse model; assay type: in vivo, NSG immunodeficient mice; conditions: 30 mg kg−1 IP twice daily
Description: Incubation at 37 °C for 3 h. Representative data for n = 3. c) Time‐course of heme displacement from IDO1 detected by the absorbance at the Soret peak (404 nm) as a function of time. […] All curves were fit using a one‐site model with N = 1 and defined IDO1 concentration. Left plots show baseline corrected data, while right plots show integrated binding isotherms versus iDegs/IDO1 ratio. IDO1 protein (125 µM) was titrated into the stirred sample cell containing iDegs (25 µM, except for iDeg‐8 at 50 µM). Representative data for n = 3, except for iDeg‐9 (n = 2). g)–i) In vivo activity of iDeg‐6. NSG immunodeficient mice were injected with SKOV‐3 cells. Mice were treated with 18 intraperitoneal injections of iDeg‐6 (30 mg kg^−1) or vehicle. The pharmacological treatment was twice daily. Tumor volume was determined weekly by digital caliper. g) SKOV‐3 tumor growth curves in iDeg‐6‐treated mice (n = 12, green lines) or vehicle‐treated mice (n = 13, gray lines). Statistical analysis was performed by two‐way ANOVA: ****p < 0.001. h) Body weight changes during treatment window (mean values ± range). i) Survival data are shown by Kaplan‐Meier survival analysis. Mantel–Haenszel statistical analysis: p < 0.0001).
The limited clinical efficacy of IDO1 inhibitors is likely due in part to its non‐enzymatic functions that are not targeted by catalytic inhibition.^[ [32], [33], [34], [35], [36], [37], [38] ^] […] SKOV‐3 cells were subsequently engrafted into NSG immunodeficient mice to establish a SKOV‐3 tumor‐bearing model (Figure S11a). Mice were treated with iDeg‐6 at a dose of 30 mg kg^−1, administered twice daily for 18 days.
NSG female mice (NOD.Cg-PrkdcSCIDIl2rgtm1Wjl/SzJ) were purchased from Charles River (Calco, Italia) with 10 weeks age. […] Tumor volume was determined weekly by digital caliper from 10 days after tumor challenging to the endpoint of the experiment (day 80). […] All animal experiments were under the Amsterdam Protocol on animal protection and welfare: mice were monitored daily and euthanized when displaying excessive discomfort.

[2] = molecular target: IDO1 protein levels in BxPC3 cells (Homo sapiens, UniProt P14902); assay: IDO1 immunoblotting (degradation); assay type: cell-based; design: endogenous in cells; host or cells: BxPC3 (DSMZ), IFN-γ stimulated; conditions: 24 h incubation, mean ± SD
Chain of IDO1 protein levels in BxPC3 cells (P14902 whole entry): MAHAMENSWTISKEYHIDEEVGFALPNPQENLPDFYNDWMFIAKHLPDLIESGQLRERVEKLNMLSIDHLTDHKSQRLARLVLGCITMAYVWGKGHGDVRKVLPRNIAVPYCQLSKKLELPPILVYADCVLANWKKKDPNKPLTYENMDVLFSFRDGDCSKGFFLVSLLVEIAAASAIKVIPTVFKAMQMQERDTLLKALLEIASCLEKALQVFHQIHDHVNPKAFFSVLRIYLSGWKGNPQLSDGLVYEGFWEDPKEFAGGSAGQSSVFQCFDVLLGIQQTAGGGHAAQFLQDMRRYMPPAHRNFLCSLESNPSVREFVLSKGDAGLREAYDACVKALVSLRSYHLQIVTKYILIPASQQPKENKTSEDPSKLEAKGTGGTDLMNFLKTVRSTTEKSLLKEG

[3] = Pharmacokinetics of iDeg-6; assay type: in vivo, male C57Bl/6 mice; conditions: male, C57Bl/6, mouse, plasma
Description: In vivo pharmacology characterization was carried out at Pharmacelsus GmbH, Saarbrücken, Germany, using male C57Bl/6 mice. Food and water was provided ad libitum before and during each study. All experimental procedures were approved by and conducted in accordance with the regulations of the local Animal Welfare Authorities. Plasma samples were analysed by liquid chromatography tandem-mass spectrometry using a generic method. Pharmacokinetic parameters were calculated by non-compartmental analysis. […] Up to 120 mg/kg PO and 30 mg/kg IP no clinical signs were observed. […] Due to the larger plasma exposure of iDeg-6 the IP route was selected for efficacy studies.

## C#Cc1ccc(NC(=O)OC[C@]23CN(S(=O)(=O)c4ccc(C(C)(C)C)cc4C)C[C@H]2C[C@H]2C[C@@H]3C2(C)C)cc1 [98 (iDeg-6), ((3aS,4R,6R,7aS)-2-((4-(tert-butyl)-2-methylphenyl)sulfonyl)-5,5-dimethyloctahydro-3aH-4,6-methanoisoindol-3a-yl)methyl (4-ethynylphenyl)carbamate]
[1]
  IDO1 transcription (in words): without affecting its transcription
C57Bl/6 mice; 60 mg/kg IP, individual animals, shortly after administration
  clinical signs (in words): piloerection, subdued behavior
C57Bl/6 mice; IP
  dose up to which no clinical signs were observed: ≤ 30 mg/kg
C57Bl/6 mice; PO
  dose up to which no clinical signs were observed: Up to 120 mg/kg
C57Bl/6 mice; up to 30 mg kg−1 IP, no clinical signs
  tolerability (in words): well tolerated
SKOV-3 tumor
  body weight (in words): no significantly negative impact on body weight
SKOV-3 tumor; Kaplan-Meier
  overall survival (in words): significantly improved the overall survival time
SKOV-3 tumor; p < 0.001 vs control
  tumor growth (in words): significant inhibition of tumor growth
[2]; 10 nM
  Max. degradation (%): 61 ± 12 (5) %
[2]; 100 nM
  Max. degradation (%): 74 ± 13 (5) %
[3]; 1 mg/kg IV
  AUC(0-inf): 0.414 µg·h/mL
  C0: 1.12 µg/mL
  clearance: 2.42 L/h/kg
  half-life: 1.1 h
[3]; 1 mg/kg IV, read-out: Vz
  Vd: 3.82 L/kg
[3]; 30 mg/kg IP
  AUC(0-inf): 7.04 µg·h/mL
  Cmax: 0.872 µg/mL
  bioavailability: 57%
  half-life: 4 h
